Experimental data: ChEMBL document CHEMBL5143535, “Novel O-acylated (E)-3-aryl-6,7-dihydrobenzisoxazol-4(5H)-one oximes targeting HSP90-HER2 axis in breast cancer cells” (Bioorg Med Chem, 2022)
Calls of active or inactive are those of the source. No cut-off for these calls is given here.

Key:
MCF7 = assay: Antiproliferative activity against human MCF7 cells measured after 72 hrs by MTT assay; format: functional, cell-based; conditions: MCF7, 72 h
MDA-MB-231 = assay: Antiproliferative activity against human MDA-MB-231 cells measured after 72 hrs by MTT assay; format: functional, cell-based; conditions: MDA-MB-231, 72 h
HCC1954 [1] = assay: Antiproliferative activity against human HCC1954 cells measured after 72 hrs by MTT assay; format: functional, cell-based; conditions: HCC1954, 72 h
[2] = Cytotoxicity against human MCF-10A cells measured after 72 hrs by MTT assay; format: toxicity, cell-based
HCC1954 [3] = assay: Cell cycle arrest in human HCC1954 cells assessed as increase in cell accumulation at sub-G1 phase measured after 48 hrs by propidium iodide staining based flow cytometry; format: functional; conditions: dose 10-20 µM, DDE = dose-dependent effect
HCC1954 [4] = assay: Cell cycle arrest in human HCC1954 cells assessed as cell accumulation at sub-G1 phase at 20 uM measured after 48 hrs by propidium iodide staining based flow cytometry relative to control; format: functional
HCC1954 [5] = assay: Cell cycle arrest in human HCC1954 cells assessed as decrease in cell accumulation at G1 phase at 10 to 20 uM measured after 48 hrs by propidium iodide staining based flow cytometry; format: functional; conditions: dose 10-20 µM
HCC1954 [6] = assay: Induction of apoptosis in human HCC1954 cells assessed as increase in cleaved caspase-9 expression at 10 to 20 uM measured after 72 hrs by Western blot analysis; format: functional, cell-based; conditions: dose 10-20 µM
HCC1954 [7] = assay: Induction of apoptosis in human HCC1954 cells assessed as increase in cleaved PARP expression at 10 to 20 uM measured after 72 hrs by Western blot analysis; format: functional, cell-based; conditions: dose 10-20 µM
HCC1954 [8] = assay: Induction of apoptosis in human HCC1954 cells assessed as reduction in NF-kappaB expression at 10 to 20 uM measured after 72 hrs by Western blot analysis; format: functional, cell-based; conditions: dose 10-20 µM
[9] = target: T1, Heat shock protein HSP90 (Homo sapiens) (UniProt P07900+P08238); assay: Inhibition of HSP90 in human HCC1954 cells assessed as down regulation of AKT expression at 10 to 20 uM measured after 72 hrs by Western blot analysis; format: cell-based; conditions: dose 10-20 µM
[10] = target: T1, Heat shock protein HSP90 (Homo sapiens); assay: Inhibition of HSP90 in human HCC1954 cells assessed as reduction in AKT phosphorylation at 10 to 20 uM measured after 72 hrs by Western blot analysis; format: cell-based; conditions: dose 10-20 µM
[11] = target: T1, Heat shock protein HSP90 (Homo sapiens); assay: Inhibition of HSP90 in human HCC1954 cells assessed as down regulation of ERK1/2 expression at 10 to 20 uM measured after 72 hrs by Western blot analysis; format: cell-based; conditions: dose 10-20 µM
[12] = target: T1, Heat shock protein HSP90 (Homo sapiens); assay: Inhibition of HSP90 in human HCC1954 cells assessed as down regulation of EGFR expression at 10 to 20 uM measured after 72 hrs by Western blot analysis; format: cell-based; conditions: dose 10-20 µM
[13] = Effect on HSP70 expression in human HCC1954 cells at 10 to 20 uM measured after 72 hrs by Western blot analysis; format: toxicity, cell-based; conditions: hcc1954, 72 h, dose 10-20 µM
HCC1954 [14] = assay: Antiproliferative activity against human HCC1954 cells measured after 72 hrs by SRB assay; format: functional, cell-based; conditions: HCC1954, 72 h
[15] = target: T1, Heat shock protein HSP90 (Homo sapiens); assay: Inhibition of HSP90 in human HCC1954 cells assessed as down regulation of HER2 expression at 10 to 20 uM measured after 72 hrs by Western blot analysis; format: cell-based; conditions: dose 10-20 µM

SMILES	IC50 (MCF7)	IC50 (MDA-MB-231)	IC50 (HCC1954 [1])	further results
O=C(Nc1ccccc1C(=O)O/N=C1\CCCc2noc(-c3ccc(F)cc3)c21)c1ccccc1F	> 25 µM	> 25 µM	> 25 µM	
COc1cc(-c2onc3c2/C(=N/OC(=O)c2cccc(NC(=O)c4cccc(F)c4)c2)CC(C)(C)C3)ccc1O	6.2 µM	> 25 µM	6 µM	IC50 at 72 h [2]: > 30 µM; Activity (HCC1954 [3]): Dde; Activity (HCC1954 [4]): 50%; Activity (HCC1954 [5]): Active; Activity (HCC1954 [6]): Active; Activity (HCC1954 [7]): Active; Activity (HCC1954 [8]): Active; inhibition [9]: Active; inhibition [10]: Active; inhibition [11]: Active; inhibition [12]: Active; Activity [13]: Non-Toxic; IC50 (HCC1954 [14]): 6 µM; inhibition [15]: Active
CC1(C)C/C(=N\OC(=O)c2cccc(NC(=O)c3cccc(F)c3)c2)c2c(-c3ccc(F)cc3)noc2C1	5.2 µM	> 25 µM	> 25 µM	
CC1(C)C/C(=N\OC(=O)c2ccccc2NC(=O)c2ccccc2F)c2c(-c3ccc(F)cc3)noc2C1	> 25 µM	> 25 µM	> 25 µM	
COc1cccc(C(=O)Nc2cccc(C(=O)O/N=C3\CCCc4onc(-c5ccc(OC)c(OC)c5)c43)c2)c1	> 25 µM	> 25 µM	> 25 µM	
O/N=C1\CCCc2onc(-c3cccc(F)c3)c21	> 25 µM	> 25 µM	> 25 µM	
CC(=O)Nc1ccccc1C(=O)O/N=C1\CCCc2noc(-c3ccc(F)cc3)c21	> 25 µM	> 25 µM	> 25 µM	
COc1cc(/C=C(\C#N)C(N)=O)cc(CSc2nc3ccccc3s2)c1O				IC50 (HCC1954 [14]): 30 µM
COc1ccc(-c2noc3c2/C(=N/OC(=O)c2cccc(NC(=O)c4cccc(N)c4)c2)CCC3)cc1OC	25 µM	> 25 µM	> 25 µM	
CC1(C)C/C(=N\OC(=O)c2cccc(NC(=O)c3cccc(F)c3)c2)c2c(-c3cccc(F)c3)noc2C1	25 µM	> 25 µM	> 25 µM	

Continued, in another order:

IC50 (MCF7)	IC50 (MDA-MB-231)	IC50 (HCC1954 [1])	SMILES	further results
> 25 µM	> 25 µM	> 25 µM	COc1ccc(-c2noc3c2/C(=N/OC(=O)c2cccc(NC(=O)c4cccc(F)c4)c2)CCC3)cc1OC	
> 25 µM	> 25 µM	> 25 µM	COc1ccc(-c2noc3c2/C(=N/OC(=O)c2cccc(NC(=O)c4cccc(F)c4)c2)CC(C)(C)C3)cc1OC	
> 25 µM	> 25 µM	> 25 µM	O=C(O)c1cccc(NC(=O)c2cccc(F)c2)c1	
> 25 µM	> 25 µM	> 25 µM	O=C(Nc1cccc(C(=O)O/N=C2\CCCc3noc(-c4ccc(F)cc4)c32)c1)c1cccc(F)c1	
> 25 µM	> 25 µM	> 25 µM	Nc1cccc(C(=O)Nc2cccc(C(=O)O/N=C3\CCCc4onc(-c5ccc(F)cc5)c43)c2)c1	
4.7 µM	8.7 µM	> 25 µM	O=C(Nc1cccc(C(=O)O/N=C2\CCCc3onc(-c4cccc(F)c4)c32)c1)c1cccc(F)c1	
> 25 µM	6.2 µM	> 25 µM	O=C(Nc1cccc(C(=O)O/N=C2\CCCc3onc(-c4ccccc4F)c32)c1)c1cccc(F)c1	
> 25 µM	> 25 µM	> 25 µM	O=C(Nc1ccccc1C(=O)O/N=C1\CCCc2onc(-c3ccc(F)cc3)c21)c1cccc(F)c1	
> 25 µM	9.3 µM	> 25 µM	O=C(Nc1cccc(C(=O)O/N=C2\CCCc3noc(-c4cccc(F)c4)c32)c1)c1cccc(F)c1	
> 25 µM	> 25 µM	> 25 µM	Nc1cccc(C(=O)Nc2cccc(C(=O)O/N=C3\CCCc4noc(-c5ccc(F)cc5)c43)c2)c1	
> 25 µM	> 25 µM	> 25 µM	CC(C)(C)OC(=O)Nc1cccc(C(=O)Nc2cccc(C(=O)O/N=C3\CCCc4onc(-c5ccc(F)cc5)c43)c2)c1	
> 25 µM	> 25 µM	> 25 µM	CC1(C)C/C(=N\OC(=O)c2cccc(NC(=O)c3cccc(F)c3)c2)c2c(noc2-c2cccc(F)c2)C1	
> 25 µM	> 25 µM	> 25 µM	COc1ccc(-c2onc3c2/C(=N/OC(=O)c2cccc(NC(=O)c4cccc(F)c4)c2)CC(C)(C)C3)cc1OC	
